These are literature values, as cited in patent US10206949B2, “Composition that relieves heartburn, GERD and hangovers” (priority 2015, dated 2019).

Setting [1] is: patients with acute renal or cardiac failure.

Consider `CNC(=C[N+](=O)[O-])NCCSCc1ccc(CN(C)C)o1` [ranitidine, N-(2-[(5-[(dimethylamino)methyl]furan-2-yl)methylthio]ethyl)-N′-methyl-2-nitroethene-1,1-diamine], for which the “false positives for methamphetamine on drug tests” value (in vivo) was “known to give false positives”. For the same compound, the fungal sepsis entry (patients on ranitidine) was “observed in some patients”. Moreover, under setting [1], the mucosal perfusion entry is recorded as “decrease mucosal perfusion” and the risk of death entry is on record as “increases their risk of death”.
